Test results taken from US20060293309A1, “Method of treating disorders and conditions using peripherally-restricted antagonists and inhibitors” (Dynogen Pharmaceuticals, Inc., priority 2005, published 2006).

Tests used:
[1] = test system: cisplatin-induced emesis; assay: cisplatin-induced retching and vomiting in the ferret; format: in vivo, ferret (Mustela putario furo); conditions: 5 mg/kg and 10 mg/kg i.p., 6 h observation
Description: The suitability of a compound of the invention to reduce retching and vomiting therapeutically is assessed in an accepted animal model of cytotoxin-induced emesis. Specifically, the experiments described herein are used to investigate the effect of a compound to reduce cisplatin-induced retching and/or vomiting in the ferret. Ondansetron is used as a positive control in the model, in view of its known antiemetic activity (Rudd and Naylor, Eur. J. Pharmacol., 322: 79-82 (1997)).
Adult male ferrets (Mustela putario furo) weighing 1200-1880g are purchased from Triple F Farns (Sayre, Pa.) and housed in individual cages at standardized conditions (12:12 h light/dark cycle and 21-23° C.). […]
Experiments are performed essentially as follows. […] Following administration of the cisplatin and either the test compound, ondansetron (control) or vehicle alone, the occurrence of retching and vomiting is monitored for a period of 6 hours. […] The latency of the retching or vomiting response and the number of episodes are recorded for each animal and are summarized for each experimental group (Wright et al., Infect. Immun., 68(4): 2386-9 (2000)). […]
Cisplatin is expected to induce an emetic response in 100% of the animals receiving vehicle alone. […] The mean latency of the first response post-cicplatin administration is also determined.

[2] = target: T1, 5-HT3 human recombinant receptors from HEK-293 cells (Homo sapiens, UniProt P46098); assay: 5-HT3 human recombinant binding assay ([3H]GR 65630)
T1 construct: expressed in transfected cells; host or cells: HEK-293
T1 sequence (P46098 24-478): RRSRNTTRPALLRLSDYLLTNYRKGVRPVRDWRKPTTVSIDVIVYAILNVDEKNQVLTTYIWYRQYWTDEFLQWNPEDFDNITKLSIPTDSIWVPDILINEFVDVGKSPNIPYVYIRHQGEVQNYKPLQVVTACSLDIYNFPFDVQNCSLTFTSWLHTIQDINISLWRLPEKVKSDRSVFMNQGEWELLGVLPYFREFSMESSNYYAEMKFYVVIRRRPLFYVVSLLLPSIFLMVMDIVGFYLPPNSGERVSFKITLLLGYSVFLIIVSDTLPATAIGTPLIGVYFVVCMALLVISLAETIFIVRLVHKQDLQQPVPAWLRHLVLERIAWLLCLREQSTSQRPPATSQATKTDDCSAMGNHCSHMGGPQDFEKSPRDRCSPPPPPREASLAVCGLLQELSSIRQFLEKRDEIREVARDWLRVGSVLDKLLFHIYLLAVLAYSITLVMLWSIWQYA
Description: (§1) The binding of MCI 225 QUAT to various receptors/transporters was compared to that of the non-quaternized parent compound, MCI-225. Binding assays were performed essentially according to procedures as follows.
The 5-HT3 human recombinant binding assay was performed essentially as described in Lummis et al. (1990) Eur. J. Pharmacol. 189:223-27; Hoyer et al. (1988) Mol. Pharmacol. 33:303; and Tyers et al. (1991) Therapie 46:431-435. Briefly, human recombinant receptors were from HEK-293 cells. Tritiated radioligand (GR 65630) was used. % specific binding was determined as a function of log [compound]. MDL 72222 (1 alpha H, 3 alpha, 5 alpha H-tropan-3-yl-3,5-dichlorobenzoate) was used as nonspecific determinant, reference compound and positive control.

[3] = target: T2, serotonin transporter (SERT), human platelet membranes (Homo sapiens, UniProt P31645); assay: serotonin transporter (SERT) binding assay ([3H]N-methyl citalopram)
T2 construct: Briefly, human recombinant receptors were from human platelet membranes; from tissue; host or cells: human platelet membranes
T2 sequence (P31645 whole entry): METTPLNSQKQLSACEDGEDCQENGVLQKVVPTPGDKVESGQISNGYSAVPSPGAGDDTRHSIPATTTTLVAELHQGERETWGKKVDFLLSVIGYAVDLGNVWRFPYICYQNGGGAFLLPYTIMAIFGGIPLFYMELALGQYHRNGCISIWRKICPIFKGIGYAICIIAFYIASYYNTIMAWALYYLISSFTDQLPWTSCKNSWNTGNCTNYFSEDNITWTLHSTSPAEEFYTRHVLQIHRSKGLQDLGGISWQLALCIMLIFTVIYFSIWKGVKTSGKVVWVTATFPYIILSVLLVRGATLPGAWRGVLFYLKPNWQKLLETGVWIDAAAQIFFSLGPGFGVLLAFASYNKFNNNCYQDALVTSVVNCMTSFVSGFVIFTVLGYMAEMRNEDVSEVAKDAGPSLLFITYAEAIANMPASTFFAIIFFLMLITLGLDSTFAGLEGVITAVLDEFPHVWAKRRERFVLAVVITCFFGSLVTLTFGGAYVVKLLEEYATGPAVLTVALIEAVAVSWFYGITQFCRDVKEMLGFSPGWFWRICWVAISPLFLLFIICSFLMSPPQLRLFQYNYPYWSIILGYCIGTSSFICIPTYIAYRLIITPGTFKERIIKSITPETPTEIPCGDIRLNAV
Description: Binding assays were performed essentially according to procedures as follows.
The serotonin transporter (SERT) assay was performed essentially as described in D'Armato et al. (1987) J. Pharmacol. & Exp. Ther. 242:364-371 (with modification); and Brown et al. (1986) Eur. J. Pharmacol. 123:161-165. Briefly, human recombinant receptors were from human platelet membranes. Tritiated radioligand (N-methyl citalopram) was used. % specific binding was determined as a function of log [compound]. Imipramine was used as nonspecific determinant, reference compound and positive control.

[4] = target: T3, norepinephrine transporter (NET), human recombinant from CHO cells (Homo sapiens, UniProt P23975); assay: norepinephrine transporter (NET) binding assay ([3H]nisoxetine)
T3 construct: expressed in transfected cells; host or cells: CHO
T3 sequence (P23975 whole entry): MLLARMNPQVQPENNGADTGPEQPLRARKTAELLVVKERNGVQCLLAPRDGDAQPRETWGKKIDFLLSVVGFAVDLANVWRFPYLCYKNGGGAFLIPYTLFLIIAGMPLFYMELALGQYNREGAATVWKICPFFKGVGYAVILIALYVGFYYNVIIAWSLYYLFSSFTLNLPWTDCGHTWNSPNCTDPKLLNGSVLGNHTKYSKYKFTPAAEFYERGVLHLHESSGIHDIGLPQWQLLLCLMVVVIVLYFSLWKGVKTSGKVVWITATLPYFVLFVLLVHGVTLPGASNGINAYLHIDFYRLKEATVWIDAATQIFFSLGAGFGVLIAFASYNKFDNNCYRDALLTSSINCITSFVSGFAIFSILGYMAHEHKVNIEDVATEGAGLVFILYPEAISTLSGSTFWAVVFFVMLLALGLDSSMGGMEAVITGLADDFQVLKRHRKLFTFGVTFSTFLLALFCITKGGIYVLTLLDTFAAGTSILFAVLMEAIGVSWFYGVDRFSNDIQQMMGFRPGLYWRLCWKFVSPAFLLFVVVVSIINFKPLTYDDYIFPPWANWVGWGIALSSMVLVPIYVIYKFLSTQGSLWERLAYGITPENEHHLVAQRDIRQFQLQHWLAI
Description: as §1
The norepinephrine transporter (NET) assay was performed essentially as described in Raisman et al. (1982) Eur. J. Pharmacol. 78:345-351 (minor modifications); and Raisman and Briley (1981) Eur. J. Pharmacol. 72:423. Briefly, human recombinant receptors were from CHO cells. Tritiated radioligand (nisoxetine) was used. % specific binding was determined as a function of log [compound]. Desipramine (DMI) was used as nonspecific determinant, reference compound and positive control.

| SMILES | latency of the first emetic response induced by cisplatin [1] | number of emetic events induced by cisplatin [1] | 5-HT3 (hr) % specific binding ([2]; Conc. 1.00E−06) [%] | 5-HT3 (hr) % specific binding ([2]; Conc. 1.00E−08) [%] | 5-HT3 (hr) % specific binding ([2]; Conc. 1.00E−10) [%] | SERT (h) % specific binding ([3]; Conc. 1.00E−06) [%] | SERT (h) % specific binding ([3]; Conc. 1.00E−08) [%] | SERT (h) % specific binding ([3]; Conc. 1.00E−10) [%] | NET (hr) % specific binding ([4]; Conc. 1.00E−06) [%] | NET (hr) % specific binding ([4]; Conc. 1.00E−08) [%] | NET (hr) % specific binding ([4]; Conc. 1.00E−10) [%] |
| --- | --- | --- | --- | --- | --- | --- | --- | --- | --- | --- | --- |
| Cc1nccn1CC1CCc2c(c3ccccc3n2C)C1=O (centres unmarked) [Ondansetron, ondansetron] | increase the latency | reduce the number of emetic events | – | – | – | – | – | – | – | – | – |
| Cc1cc2c(-c3ccccc3F)nc(N3CCNCC3)nc2s1 [compound 225, 4-(2-fluoro-phenyl)-6-methyl-2-piperazin-1-yl-thieno[2,3-d]pyrimidine] | – | – | 100 | 22 | 0 | 94 | 10 | 1 | 104 | 72 | 17 |
